Patent US20090087841A1, “METHODS AND COMPOSITIONS FOR D[…] HIV-1 TO PROTEASE INHIBITORS” (Monogram Biosciences, Inc., priority 2005, published 2009)

Each compound was assayed on HIV-1 viral population of patient sample 848 (assay: Resistance test vector phenotypic drug susceptibility assay of patient sample 848). Details: mixed viral population in sample 848, FIG. 3.
Assay type: cell-based
Text: Patient-derived segment(s) corresponding to the HIV protease and reverse transcriptase coding regions were amplified by the reverse transcription-polymerase chain reaction method (RT-PCR) using viral RNA isolated from viral particles present in the plasma or serum of HIV-infected individuals as follows. Viral RNA was isolated from the plasma or serum using oligo-dT magnetic beads (Dynal Biotech, Oslo, Norway), followed by washing and elution of viral RNA. The RT-PCR protocol was divided into two steps. A retroviral reverse transcriptase (e.g. Moloney MuLV reverse transcriptase (Roche Molecular Systems, Inc., Branchburg, N.J.; Invitrogen, Carlsbad, Calif.), or avian myeloblastosis virus (AMV) reverse transcriptase (Roche Molecular Systems, Inc., Branchburg, N.J.), or) was used to copy viral RNA into cDNA. The cDNA was then amplified using a thermostable DNA polymerase (e.g. Taq (Roche Molecular Systems, Inc., Branchburg, N.J.), Tth (Roche Molecular Systems, Inc., Branchburg, N.J.), PRIMEZYME™ (isolated from Thermus brockianus, Biometra, Gottingen, Germany)) or a combination of thermostable polymerases as described for the performance of “long PCR” Barnes, W. M., 1994, Proc. Natl. Acad. Sci, USA 91, 2216-20) (e.g. Expand High Fidelity PCR System (Taq+Pwo), (Boehringer Mannheim. Indianapolis, Ind.); GENEAMP XL™ PCR kit (Tth+Vent), (Roche Molecular Systems, Inc., Branchburg, N.J.); or ADVANTAGE II®, Clontech, Palo Alto, Calif.)
Resistance test vectors incorporating the “test” patient-derived segments were constructed as described in U.S. Pat. No. 5,837,464 using an amplified DNA product of 1.5 kB prepared by RT-PCR using viral RNA as a template and oligonucleotides PDS Apa, PDS Age, PDS PCR6, Apa-gen, Apa-c, Apa-f, Age-gen, Age-a, RT-ad, RT-b, RT-c, RT-f, and/or RT-g as primers, followed by digestion with ApaI and AgeI or the isoschizomer PinA1. To ensure that the plasmid DNA corresponding to the resultant fitness test vector comprises a representative sample of the HIV viral quasi-species present in the serum of a given patient, many (>250) independent E. coli transformants obtained in the construction of a given fitness test vector are pooled and used for the preparation of plasmid DNA.
A packaging expression vector encoding an amphotrophic MuLV 4070A env gene product enables production in a resistance test vector host cell of resistance test vector viral particles which can efficiently infect human target cells. Resistance test vectors encoding all HIV genes with the exception of env were used to transfect a packaging host cell (once transfected the host cell is referred to as a fitness test vector host cell). The packaging expression vector which encodes the amphotrophic MuLV 4070A env gene product is used with the resistance test vector to enable production in the resistance test vector host cell of infectious pseudotyped resistance test vector viral particles.
Drug resistance tests performed with resistance test vectors were carried out using packaging host and target host cells consisting of the human embryonic kidney cell line 293. See U.S. Pat. No. 5,837,464.
Resistance tests were carried out with resistance test vectors using two host cell types. Resistance test vector viral particles were produced by a first host cell (the resistance test vector host cell) that was prepared by transfecting a packaging host cell with the resistance test vector and the packaging expression vector. The resistance test vector viral particles were then used to infect a second host cell (the target host cell) in which the expression of the indicator gene is measured.
The resistance test vectors containing a functional luciferase gene cassette were constructed as described above and host cells were transfected with the resistance test vector DNA. […]
`CC(C)CN(C[C@@H](O)[C@H](Cc1ccccc1)NC(=O)O[C@H]1CCOC1)S(=O)(=O)c1ccc(N)cc1` [AMP, amprenavir] was tested, and the “phenotypic resistance score of the viral population” value (“phenotypic resistance score” below) was “resistant”.
With `CC(C)(C)NC(=O)[C@@H]1CN(Cc2cccnc2)CCN1C[C@@H](O)C[C@@H](Cc1ccccc1)C(=O)N[C@H]1c2ccccc2C[C@H]1O` [IDV, indinavir] the “phenotypic resistance score” value was “resistant”.
In the case of `Cc1cccc(C)c1OCC(=O)N[C@@H](Cc1ccccc1)[C@@H](O)C[C@H](Cc1ccccc1)NC(=O)[C@H](C(C)C)N1CCCNC1=O` [LPV, lopinavir], the “phenotypic resistance score” value was “resistant”.
With `Cc1c(O)cccc1C(=O)N[C@@H](CSc1ccccc1)[C@H](O)CN1C[C@H]2CCCC[C@H]2C[C@H]1C(=O)NC(C)(C)C` [NFV, nelfinavir] the “phenotypic resistance score” value was “resistant”.
With `CC(C)c1nc(CN(C)C(=O)N[C@H](C(=O)N[C@@H](Cc2ccccc2)C[C@H](O)[C@H](Cc2ccccc2)NC(=O)OCc2cncs2)C(C)C)cs1` [RTV, ritonavir] the “phenotypic resistance score” value was “resistant”.
In the case of `CC(C)(C)NC(=O)[C@@H]1C[C@@H]2CCCC[C@@H]2CN1C[C@@H](O)[C@H](Cc1ccccc1)NC(=O)[C@H](CC(N)=O)NC(=O)c1ccc2ccccc2n1` [SQV, saquinavir], the “phenotypic resistance score” value was “resistant”.
